According to ChEMBL document CHEMBL3045578, “Synthesis and study of the antidepressant activity of novel 4,5-dihydro-7-alkoxy(phenoxy)-tetrazolo[1,5-a]quinoline derivatives” (2012):
The source made the active and inactive calls. The rule behind the calls is not given here.

How the values were obtained:
Mus musculus [1] = assay: Antidepressant activity in Mus musculus Kunming (mouse) assessed as immobility time at 40 mg/kg, po administered 30 min prior to testing measured for 6 min by forced swimming test (reference value: 177.67 +/- 10.88 secs); format: functional
Mus musculus [2] = assay: Antidepressant activity in Mus musculus Kunming (mouse) assessed as decrease in immobility time at 40 mg/kg, po administered 30 min prior to testing measured for 6 min by tail suspension test (reference value: 110.67 +/- 11.52 secs); format: functional

SMILES | Time (Mus musculus [1]) | Time (Mus musculus [2]) | Activity (Mus musculus [2])
Brc1ccccc1COc1ccc2c(c1)CCc1nnnn1-2 | 65.17 s | 20 s | 
Clc1cccc(COc2ccc3c(c2)CCc2nnnn2-3)c1 | 65.17 s |  | 
CCCCOc1ccc2c(c1)CCc1nnnn1-2 |  | 20 s | 
Cc1ccc(COc2ccc3c(c2)CCc2nnnn2-3)cc1 | 65.17 s |  | 
CCCCCOc1ccc2c(c1)CCc1nnnn1-2 | 135.67 s | 20 s | 
Nc1ccc(COc2ccc3c(c2)CCc2nnnn2-3)cc1 | 178 s | 98.5 s | 
Clc1ccc(COc2ccc3c(c2)CCc2nnnn2-3)cc1 |  | 20 s | 
Brc1cccc(COc2ccc3c(c2)CCc2nnnn2-3)c1 |  | 20 s | 
CCCCCCOc1ccc2c(c1)CCc1nnnn1-2 | 133.5 s |  | 
CNCCC(Oc1ccc(C(F)(F)F)cc1)c1ccccc1 (configuration not stated) [FLUOXETINE] | 93.17 s |  | Active
CCOc1ccc2c(c1)CCc1nnnn1-2 | 179.83 s | 108.17 s | 
Fc1ccccc1COc1ccc2c(c1)CCc1nnnn1-2 |  | 20 s | 
Fc1ccc(COc2ccc3c(c2)CCc2nnnn2-3)cc1 | 65.17 s |  | 
CCCOc1ccc2c(c1)CCc1nnnn1-2 | 181.5 s | 93 s | 
CCCCCCCOc1ccc2c(c1)CCc1nnnn1-2 | 170.5 s | 20 s | 
c1ccc(COc2ccc3c(c2)CCc2nnnn2-3)cc1 | 95.17 s | 20 s | 
CCCCCCCCOc1ccc2c(c1)CCc1nnnn1-2 | 172.83 s | 107.5 s | 
COc1ccc(COc2ccc3c(c2)CCc2nnnn2-3)cc1 | 65.17 s | 20 s | 
Fc1cccc(COc2ccc3c(c2)CCc2nnnn2-3)c1 | 65.17 s | 20 s | 
Clc1ccccc1COc1ccc2c(c1)CCc1nnnn1-2 | 65.17 s | 20 s | 
